Experimental data as given in patent publication US11406642B2, “DNP and DNP prodrug treatment of neuromuscular, neurodegenerative, autoimmune, developmental, traumatic brain injury, concussion, dry eye disease, hearing loss and/or metabolic diseases” (priority 2016, dated 2022).
Where two headings read alike, the source gives them in different places.

What was measured:
[1] = tested on: noise induced hearing loss; test: In vivo noise exposure, Compound Action Potential threshold; set-up: species or system Rats; settings: for CAP threshold (compound + Noise): noise 8 h, 105 dB, 8-16 kHz, 5 days oral gavage q.d., 2,4-DNP 5 mpk, II-38 80 mpk, 1-week post exposure; for threshold lower than Noise alone group: same study, Noise alone 25 dB
Procedure: In vivo Noise Exposure Pilot DNP (2,4-DNP) & Prodrug of DNP (II-38): Rats, N=6/group: control, noise alone, noise+2,4-DNP (5 mpk), noise+II-38 (80 mpk). Noise exposure: 8 h, 105 dB, noise band 8-16 kHz. Treatment duration 5 days oral gavage q.d. starting day of noise. Endpoint: Compound Action Potential (CAP) recorded from the round window membrane 1-week post exposure. Threshold: intensity in dB SPL needed to produce 4 μV CAP amplitude.

[2] = Plasma pharmacokinetics of II-38 and 2,4-DNP released from II-38; assay type: in vivo, Sprague-Dawley male rats; settings: for half-life: read-out: t1/2 of II-38; for bioavailability: read-out: % F of II-38
Procedure: The oral bioavailability and plasma pharmacokinetic (PK) properties of II-38 prodrug and 2,4-DNP-released from II-38 prodrug was investigated in Sprague-Dawley (S-D) male rats after a single i.v. injection of II-38 at 1.6 mg/kg (eq. to 1 mg/kg 2,4-DNP) and an oral dose eq. to 5, 25 and 50 mg/kg of 2,4-DNP. Blood samples were taken up to […].
All procedures that involved the use of rats were conducted in accordance with the guidelines set forth by the University of Arkansas for Medical Sciences (UAMS) Institutional Animal Care and Use Committee established by the National Institutes of Health's Guide for the Care and Use of Laboratory Animals (1996). Male Sprague-Dawley rats weighing 250-300 grams were housed three per cage with ad libitum access to food and water in the Division of Laboratory Animal Resources, UAMS. Rats were anesthetized with isofluorane (2-5%)/oxygen (1.5-2.0 L/min) and surgically implanted with cannulae in the jugular (i.v. dosing) and femoral (blood sampling) veins. […] Following appropriate evidence of successful recovery from surgery, IV or oral dosing was performed and blood samples (0.15 mL) were collected at 0, 5, 15, 30, 45, 60, 120, 240 and 480 min. Plasma samples were prepared and analysis was run using a LC/MS/MS spectrometry.
For the i.v. injection, a total volume of 0.8 mL/kg was used at a dose of 1.6 mg/kg (eq. to 1 mg/kg of 2,4-DNP). For the oral route, stock solutions of II-38 containing eq. to 1, 5 and 25 mg/mL of 2,4-DNP were prepared and administered to rats at final doses eq. to 1, 5 and 25 mg/kg of 2,4-DNP, respectively. An oral dose of 8 mg/kg of II-38 (eq. to 5 mg/kg) was dissolved in a phosphate-saline buffer solution, pH 7.4 containing 5% DMSO and 20% PEG-400, while a dose of 40 mg/kg (eq. to 25 mg/kg) was formulated with 0.5% methyl cellulose (methocel) containing 1% DMSO. A high dose of II-38 (eq. 50 mg/kg) was formulated with water containing 1% DMSO and 40% PEG-400. Because of the different vehicles used in formulations of II-38, a dose eq. to 25 mg/kg of 2,4-DNP was repeated using a vehicle consisting of DMSO, PEG-400, and water (1%: 40%: 59%). The later dose was utilized for comparison of PK data of 2,4-DNP-released from II-38 for differences in formulations.
Jugular and femoral vein-catheterized Sprague-Dawley male rats (weights 250-300 g, n=4) were treated with II-38 at a single oral dose of 8, 40 and 80 mg/kg (eq. to 5, 25 and 50 mg/kg of 2,4-DNP, respectively) or injected a single i.v. dose of 1.6 mg/kg of II-38 (eq. to 1 mg/kg 2,4-DNP, n=2). Blood samples (0.15 mL) were collected at 0, 5, 15, 30, 45, 60, 120, 240 and 480 min. Plasma samples were prepared and 2,4-DNP, II-38 and 2,4-DNP-released from II-38 concentrations were quantitated using the LC/MS/MS spectrometry assay method described below.
To isolate the analytes from rat plasma, 50 μL of control or treated plasma fortified with 10 μL of 2,4-DNP-d3 (10 μg/mL) as an internal standard to which 0.3 mL of methanol followed by 0.3 mL of acetonitrile was added. The mixture was vortex-mixed for 30 s and centrifuged for 10 min at 10,000 rpm at room temperature. The supernatant was transferred into 5 mL glass tubes and evaporated to dryness at 37° C. under nitrogen gas. The pellet was reconstituted with 50 μL of acetonitrile, vortex-mixed for 30 sec, followed by sonication for 1 min. Following centrifugation at 1000 rpm for 10 min at room temperature, 5 μL of the supernatant was then injected onto the column, and analytes were quantified by a LC/MS/MS spectrometry.
1—Plasma concentrations of 2,4-DNP after a single i.v. injection of 2,4-DNP of 1 mg/kg or 5 mg/kg oral administration; 2—Plasma concentrations of II-38 and 2,4-DNP-released from II-38 after an i.v. injection 1.6 mg/kg of II-38 eq. to 1 mg/kg of 2,4-DNP or an oral dose of 8, 40 and 80 mg/kg of II-38 eq. to 5, 25 and 50 mg/kg of 2,4-DNP, respectively. […]

[3] = male, Sprague-Dawley, rat, in vivo, iv, 1.6 mg/kg, single i.v. injection of II-38 1.6 mg/kg (eq. to 1 mg/kg 2,4-DNP), n = 2
[4] = male, Sprague-Dawley, rat, in vivo, po, 5 mg/kg, oral II-38 eq. to 5 mg/kg of 2,4-DNP
[5] = male, Sprague-Dawley, rat, in vivo, po, 25 mg/kg, oral II-38 eq. to 25 mg/kg of 2,4-DNP, PEG-400
[6] = male, Sprague-Dawley, rat, in vivo, po, 25 mg/kg, oral II-38 eq. to 25 mg/kg of 2,4-DNP, methocel
[7] = male, Sprague-Dawley, rat, in vivo, po, 50 mg/kg, oral II-38 eq. 50 mg/kg of 2,4-DNP

SMILES: O=C(Oc1ccc([N+](=O)[O-])cc1[N+](=O)[O-])N1CCOCC1 [II-38, 2,4-Dinitrophenyl morpholine-4-carboxylate]
- CAP threshold (compound + Noise) [1]: 5 dB
- threshold lower than Noise alone group [1]: approximately 20 dB
- AUC [2, 3]: 8600 ng·h/mL
- Cmax [2, 3]: 900 ± 50 ng/mL
- half-life [2, 3]: 6.89 ± 1.09 h
- clearance ([2]; male, Sprague-Dawley, rat, in vivo, iv, single i.v. injection of II-38 1.6 mg/kg (eq. to 1 mg/kg 2,4-DNP), n = 2, read-out: Cl of II-38): 3.1 ± 0.3 mL/min/kg
- Vd ([2]; male, Sprague-Dawley, rat, in vivo, iv, single i.v. injection of II-38 1.6 mg/kg (eq. to 1 mg/kg 2,4-DNP), n = 2, read-out: Vss of II-38): 1.86 ± 0.101 L/kg
- AUC [2, 4]: 15000 ng·h/mL
- Cmax [2, 4]: 1100 ± 200 ng/mL
- Tmax [2, 4]: 2.19 h
- bioavailability [2, 4]: 44.8 ± 4.4%
- half-life [2, 4]: 15.2 ± 7 h
- AUC [2, 5]: 14600 ng·h/mL
- Cmax [2, 5]: 2410 ± 300 ng/mL
- Tmax [2, 5]: 1.5 h
- bioavailability [2, 5]: 21.3 ± 0.9%
- half-life [2, 5]: 7.41 ± 3.06 h
- AUC [2, 6]: 18400 ng·h/mL
- Cmax [2, 6]: 1800 ± 300 ng/mL
- Tmax [2, 6]: 0.458 h
- bioavailability [2, 6]: 31.6 ± 1.2%
- half-life [2, 6]: 11 ± 4.2 h
- AUC [2, 7]: 24300 ng·h/mL
- Cmax [2, 7]: 1900 ± 600 ng/mL
- Tmax [2, 7]: 1.69 h
- bioavailability [2, 7]: 24.5 ± 1.1%
- half-life [2, 7]: 17.7 ± 6.96 h

SMILES: O=[N+]([O-])c1ccc(O)c([N+](=O)[O-])c1 [2,4-DNP, 2,4-dinitrophenol]
- CAP threshold (compound + Noise) [1]: 15 dB
- threshold lower than Noise alone group [1]: about 10 dB
- fold increased level of 2,4-DNP after oral 2,4-DNP compared to 2,4-DNP released from II-38 ([2]; 2,4-DNP 5 mg/kg oral vs II-38 oral eq. to 5 mg/kg): approximately 12.0 fold
- fold increased level of 2,4-DNP after oral 2,4-DNP compared to 2,4-DNP released from II-38 ([2]; 2,4-DNP 5 mg/kg oral vs II-38 oral eq. to 25 mg/kg (PEG-400)): ~3.4 fold
- fold increased level of 2,4-DNP after oral 2,4-DNP compared to 2,4-DNP released from II-38 ([2]; 2,4-DNP 5 mg/kg oral vs II-38 oral eq. to 25 mg/kg (methocel)): ~2.2 fold
- fold increased level of 2,4-DNP after oral 2,4-DNP compared to 2,4-DNP released from II-38 ([2]; 2,4-DNP 5 mg/kg oral vs II-38 oral eq. to 50 mg/kg): ~1.4 fold
